The values that follow come from ChEMBL document CHEMBL3758094, “Thioxocoumarins Show an Alternative Carbonic Anhydrase Inhibition Mechanism Compared to Coumarins” (J Med Chem, 2016).

pKi: −log10 of the molar value.

The target in assay [1] is Carbonic anhydrase 2 (Homo sapiens, UniProt P00918). The assay can be described thus: Inhibition of human carbonic anhydrase 2 by Stopped-Flow CO2 Hydrase assay.
Assay [2] concerns the target Carbonic anhydrase 9 (Homo sapiens, UniProt Q16790).
Assay [3] has as its target Carbonic anhydrase 1 (Homo sapiens, UniProt P00915). Kind of assay: Inhibition of human carbonic anhydrase 1 by Stopped-Flow CO2 Hydrase assay.
In assay [4] the target is Carbonic anhydrase 12 (Homo sapiens, UniProt O43570).
Sequence of Carbonic anhydrase 12 (O43570 whole entry): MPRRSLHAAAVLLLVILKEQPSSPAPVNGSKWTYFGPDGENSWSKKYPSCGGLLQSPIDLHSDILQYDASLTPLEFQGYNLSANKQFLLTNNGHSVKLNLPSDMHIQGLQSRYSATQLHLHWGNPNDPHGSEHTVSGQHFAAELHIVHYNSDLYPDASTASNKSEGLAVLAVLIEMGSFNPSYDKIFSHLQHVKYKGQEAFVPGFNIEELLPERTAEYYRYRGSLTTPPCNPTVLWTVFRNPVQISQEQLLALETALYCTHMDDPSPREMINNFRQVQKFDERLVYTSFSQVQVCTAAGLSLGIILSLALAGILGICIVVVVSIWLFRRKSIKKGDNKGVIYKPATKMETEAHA

Sequence of Carbonic anhydrase 1 (P00915 whole entry): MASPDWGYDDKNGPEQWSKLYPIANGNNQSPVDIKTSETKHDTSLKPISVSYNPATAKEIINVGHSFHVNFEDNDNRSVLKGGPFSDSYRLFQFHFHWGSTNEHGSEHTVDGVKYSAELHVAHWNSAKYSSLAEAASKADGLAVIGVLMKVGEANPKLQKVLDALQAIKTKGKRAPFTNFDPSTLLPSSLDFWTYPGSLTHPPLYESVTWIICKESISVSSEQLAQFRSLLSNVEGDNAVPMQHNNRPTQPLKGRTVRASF

A word on the pKi: it is the Ki on a negative log10 scale, so that one unit is a factor of ten. Low values mean a large Ki, high ones a small Ki. For `C=CCOc1cc(=O)oc2ccccc12`, the pKi in assay [1] is < 4.00.
Consider `S=c1ccc2ccccc2o1`, for which the negative-log Ki (pKi) in assay [2] is 5.17; in assay [3] it was < 4.00; in assay [1], < 4.00.
As to `C=CCOc1ccc2oc(=S)ccc2c1`, in assay [1], the pKi was < 4.00.
On the same count and under the same terms, next, `Oc1ccc2oc(=S)ccc2c1`: 3.55.
The same measure, in the same setting: the value for `CC(C)(C)[Si](C)(C)Oc1ccc2ccc(=S)oc2c1` was < 4.00.
In the case of `C#CCOc1ccc2ccc(=S)oc2c1`, the pKi in assay [2] was 4.38; in assay [3], 3.02; in assay [1] it was < 4.00.
On to `C#CCOc1ccc2ccc(=O)oc2c1`, for which the pKi in assay [3] is 4.14; in assay [1], < 4.00.
As for `C=CCOc1ccc2ccc(=O)oc2c1` [7-ALLYLOXYCOUMARIN], in assay [1], the pKi was < 4.00.
For `Oc1ccc2ccc(=S)oc2c1`, the pKi in assay [1] is < 4.00.
For the molecule `O=c1ccc2ccc(OCc3cn(-c4ccccc4)nn3)cc2o1`, the pKi in assay [2] is 8.10; in assay [3], < 3.70; in assay [1], < 4.00.
Turning to `S=c1ccc2ccccc2s1`, the negative-log Ki (pKi) in assay [3] and in assay [1] was < 4.00 each time.
On to `CC(C)(C)[Si](C)(C)Oc1ccc2oc(=S)ccc2c1`, for which the pKi in assay [1] was < 4.00.
As to `C=CCOc1cc(=S)oc2ccccc12`, in assay [1], the negative-log Ki (pKi) was < 4.00.
On to `O=c1ccc2cc(O)ccc2o1` [6-HYDROXYCOUMARIN], for which the negative logarithm of the Ki (pKi) was 6.72 in assay [2], < 4.00 in assay [3], < 4.00 in assay [1] and 6.17 in assay [4].
For the molecule `C=CCOc1ccc2ccc(=S)oc2c1`, the pKi in assay [1] was < 4.00.
Regarding `O=c1cc(O)c2ccccc2o1` [4-HYDROXYCOUMARINS], the negative logarithm of the Ki (pKi) in assay [2] was 6.39; in assay [3], 4.02; in assay [1], < 4.00; in assay [4] it was 5.20.
The like results for `C#CCCCOc1ccc2ccc(=O)oc2c1` were, in that order, 6.08, 3.91, < 4.00 and 6.43.
Regarding `S=c1ccc2ccc(OCc3cn(-c4ccccc4)nn3)cc2o1`, the results for the negative-log Ki (pKi) in assay [2], in assay [3] and in assay [1] were 8.40, < 3.70 and < 4.00, respectively.
For `CC(C)(C)[Si](C)(C)Oc1ccc2ccc(=O)oc2c1`, in assay [1], the pKi is < 4.00.
For the molecule `C#CCCCOc1ccc2ccc(=S)oc2c1`, the pKi in assay [2] was 6.66; in assay [3] it was < 3.70; in assay [1], < 4.00.
For `C=CCOc1ccc2oc(=O)ccc2c1`, in assay [1], the pKi is < 4.00.
The same measure, in the same setting: next, `CC(C)(C)[Si](C)(C)Oc1ccc2oc(=O)ccc2c1`: < 4.00.
For `O=c1ccc2ccccc2s1`, the negative logarithm of the Ki (pKi) in assay [3] and in assay [1] was < 4.00 each time.
